Data set [1] deals with Balb C splenocytes. Put plainly: Mitogen assay (^3H-thymidine uptake), murine splenocytes. It counts as cell-based.
In data set [2] the target is high affinity binding site on murine Balb/C splenocytes (mouse). Kind of data set: binding of 125I-labelled PT to isolated murine spleen cells; non-specific binding (100-fold excess of unlabelled iodinated PT) subtracted.
Data set [3] relates to Balb C splenocytes. Put plainly: Mitogen assay (^3H-thymidine uptake), murine splenocytes. The following applies: for CPM of tritiated thymidine incorporated: Balb C splenocytes. It counts as cell-based. From the text:
(§1) Murine spleen cells or human peripheral blood lymphocytes (PBLS) were obtained aseptically as described herein for use in the mitogen assay. When murine splenocytes were used, they were first treated with red cell lysing buffer (0.17 M Tris, 0.144 NH4C1, pH 7.2), washed in RPMI-10 (standard RPMI growth medium, Sigma Chemical Co., St. Louis, Mo., supplemented with 10% fetal bovine serum) and viable cells counted using Trypan Blue exclusion. Human PBLs were isolated from blood using HISTOPAQUE™-1077, a solution of FICOLL™ and sodium diatrizoate (Sigma Chemical Co., St. Louis, Mo.), and subsequent washings with RPMI-5 (RPMI supplemented with 5% fetal bovine serum) to remove platelets. Isolated lymphocytes were resuspended in RPMI-10 and a viable cell yield determined by Trypan Blue exclusion.
(§2) Drugs and known mitogenic controls were added in triplicate to a 96-well flat bottom microplate aseptically. The culture medium was RPMI-10. Splenocytes or human-lymphocytes were added at a concentration of 3-4×10^5 cells/well, to a final volume of 200 μl/well. The assay plate was incubated at 37° C. in a 5% CO2 humidified incubator. At 48-50 hours, ^3H-thymidine was added (1 μCi/well), and the plate was harvested approximately 16-18 hours later.
(§3) Mitogen assay microplates were harvested using an Inotech plate harvester (Inotech Biosystems International, Inc., Rockville, Md.). Counts per minute (cpm) per well were measured using the Berthold-Inotech Trace 96-plate reader (Inotech AT, Wohlen, Switzerland) and/or a scintillation counter (Packard Tri-carb 2100TR, Packard Instrument Co., Meriden, Conn.). Mitogenic activity was directly determined by comparing cpm levels to controls.
(§4) To test whether PT stimulates mitogen activity, splenocytes were incubated for two days with IL-2 (50 units/ml) or KLH (20 μg/ml) in conjunction with PT in the concentrations shown. Figures represent the radioactivity counts of tritiated thymidine taken up during a subsequent 20-hour incubation period of cells incubated with tritiated thymidine in RPMI.

Another data set concerns IL-1. Kind of data set: ELISA of IL-1 production by splenocytes. It counts as cell-based, Balb C murine. The following applies: 48 hours, PT 0.05 μg/ml. As to the method:
(§5) Identical plates are set up for an immunoassay and a mitogen assay. Mouse splenocytes and immuno-stimulating drugs are plated in duplicate wells (immunoassay) and triplicate wells (mitogen assay) in 96-well microplates as described above. The incubation at 37° C. in a humidified 5% CO2 incubator may vary from three to five days. At the end of the activation/proliferation period, the two identical plates are harvested as an immunoassay for cytokines or harvested as a mitogen assay (to which ^3H-thymidine has been added approximately 16-18 hours earlier).
(§6) Immunoassay kits used to detect IL-1β, IL-2, and IL-12 were the murine Quantikine M™ kits produced by R&D Systems (Minneapolis, Minn.). The general procedure is the same for all interleukin cytokines, and is described in the instructions provided by the manufacturer. All reagents are used at room temperature, and are prepared according to kit instructions.
(§7) The immunoassay plate is centrifuged at 200×g to pellet all cells. A 50 μl aliquot of Assay Diluent is first added to the center of each special enzyme-coated well supplied with the kit. Next, 50 μl of standard, control or test sample of supernatant from the immunoassay incubation plate is added to each well. This is incubated at room temperatures for two hours.
Liquid is aspirated from the wells, and the wells are washed five times with surfactant diluted 1:25 with distilled water. A 100 μL aliquot of Conjugate is added to each well and incubated two hours at room temperature. The wells are again aspirated and each well washed five times.
One hundred microliters of Substrate Solution are added to each well and incubated 30 minutes at room temperature. Stop Solution (100 μl) is then added to each well. The color change is light blue to yellow (activity). The plate is read for absorbence at 450 nm and at 540 nm for background readings.
To calculate the results, the duplicate readings for each pair of standard, control, and test samples are averaged and the average background optical density readings are subtracted. A standard curve is constructed for the cytokine by plotting the mean absorbence for each standard on the y-axis against the concentration on the x-axis and drawing a best-fit curve. Picograms of cytokine are determined from the standard curve. Mitogenic activity determined from the cpm of ^3H-thymidine is compared to the concentrations of cytokine in the experimental samples in the corresponding immunoassay.
One measure of macrophage activation is the production of the cytokine interleukin-1 (IL-1) and also interleukin-12 (IL-12). Incubation of 3×10^5 Balb C murine spleen cells with 0.05 μg/ml PT was performed for 48 hours. The supernatant fluid was assayed with commercial ELISA kits for IL-1 and IL-12. […] Some experiments gave less […] and some more. This is likely a reflection of the state of the immune system in the experimental mice. The addition of KLH, an effective antigen, increased both IL-1 and IL-12 production, and the addition of PT along with the KLH further increased the production of these cytokines.
A general note: ELISA stands for enzyme-linked immunosorbent assay.

The test system of another data set is IL-12. Kind of data set: ELISA of IL-12 production by splenocytes. The data set is classed as cell-based, Balb C murine. As to conditions: Experiment 1; 48 hours; PT 0.05 μg/ml, KLH 10 μg/ml; control 1.5. The method, then:
as §5, §6, §7
Liquid is aspirated from the wells, and the wells are washed five times with surfactant diluted 1:25 with distilled water. A 100 μL aliquot of Conjugate is added to each well and incubated two hours at room temperature. […]
One hundred microliters of Substrate Solution are added to each well and incubated 30 minutes at room temperature. […] The plate is read for absorbence at 450 nm and at 540 nm for background readings.
To calculate the results, the duplicate readings for each pair of standard, control, and test samples are averaged and the average background optical density readings are subtracted. […] Picograms of cytokine are determined from the standard curve. Mitogenic activity determined from the cpm of ^3H-thymidine is compared to the concentrations of cytokine in the experimental samples in the corresponding immunoassay. […]

For data set [4], the system named is B16F10 melanoma tumor cells. Kind of data set: In vivo inhibition of B16F10 melanoma tumor development. Details: species or system C57BL/6NCr female mice. As to conditions: B16 melanoma in C57 mice, sc 3 μg PT, 100 units IL-2. As to the method: C57BL/6NCr female mice (20 g), approximately 50 days old, were shaved in the abdominal area, ear notched for identification, and, two or three days prior to receiving tumor cells, pre-injected subcutaneously with the immunostimulating drugs described.
On “day zero,” B16F10 melanoma tumor cells, cultured in αMEM medium with 10% FBS, were injected intradermally (10^5 cells in 0.1 ml) in the center of the mouse abdomen using a 26 gauge ½ inch needle. Four to five hours later, the drug treatment (as specified) was injected intradermally in a different area of the abdomen than the site of the tumor injection.
Intradermal treatments using the immunostimulatory drug (as specified) continued either every other day or on a Monday-Wednesday-Friday injection schedule. Control tumors (in mice not receiving an immunostimulatory drug) usually formed within seven to ten days. Tumors were examined by visual inspection, measured (length by width), and the area of any resulting lesion was recorded as mm^2 every five days.
Mice were euthanized by CO2 inhalation if the tumor exceeded 500 mm^2. Some experiments were terminated early if all mice in the control group were dead, but the experiments were not less than 20 days. The normal duration of an experiment was about 30 days.
Pyrularia thionin, both alone and in combination with IL-2, was effective in preventing or retarding the development of melanoma tumors when C57BL/6NCr mice were pretreated before injection with B16F10 cells, which produce melanoma tumors.

The subject of the next data set is YAC-1 target cells. Put plainly: Natural killer assay (^51Cr release), murine splenocytes against YAC-1. The following applies: Swiss Webster murine splenocytes; YAC-1 targets; 48 hours with drugs; PT 0.01 μg/ml, IL-2 50 units/ml when present; effector to target ratio 80. It counts as cell-based. The method, then:
Murine spleen cell and human peripheral blood lymphocytes (PBLs) were obtained as described in the procedure for the Mitogen Assay.
Drugs and control substances were added, using sterile techniques, to the wells of a 24-well plate, using RPMI-10 as the culture medium. Spleen cells or human lymphocytes were added last to the wells at a concentration of 4×10^6 cells per 2 ml total volume in the well. Splenocyte incubation was usually three days (65-70 hours) while human lymphocyte stimulation may be extended to four to five days. The cells were incubated at 37° C. in a humidified 5% CO2 incubator.
On the day of harvest, 10^7 target cells were labeled with 150 μCi of ^51Cr (sodium chromate). Target cells used were YAC-I (murine Lymphoma) or K562 (human chronic myelogenous leukemia).
The cells were adjusted to 2×10^7 cells/ml in RPMI-10 and 150 μCi of ^51Cr were added to 500 μl of the target cell suspension (10^7 total cells) and incubated in a 5% CO2 humidified incubator for 1.5 hours. The labeled cells were washed three times with 10 ml RPMI-10 and then resuspended in 5 ml (2×10^6 cells/ml). Supernatants from washings of labeled cells were isolated and contained under lead shielding.
The stimulated effector cells were thoroughly mixed and removed from individual wells of the 24-well plate and transferred to tubes for centrifugation at 200×g. The supernatants were decanted and the pelleted cells washed once with 2 ml RPMI-10. The cells were finally resuspended in a total volume of 500 μl at approximately 8×10^6 cells/ml in RPMI-10.
One hundred microliters of the effector cell suspension (8×10^5 cells) were added in triplicate to a 96-well, V-bottom microplate. RPMI-10 was added to the wells designated for spontaneous release and total release of the target cells. One hundred microliters of the target cell suspension (1×10^4 cells/well) were added to the wells for a total volume of 200 μl. The “total release” wells contained 15 μl of 9% Triton X-100, 85 μl of RPMI-10, and 100 μl of target cells.
The 96-well plate was centrifuged at 150×g for four minutes to gently bring the effector and target cells in contact. The plate was then incubated in a humidified 5% CO2 incubator. After four hours, the assay plate was again centrifuged for five minutes at 250×g. One hundred microliters of the supernatant was carefully removed from each well and placed in 12 mm×75 mm glass tubes for counting in a gamma counter. The percent release was calculated using the following formula: […]
Addition of PT stimulates both murine splenocytes and human PBLs to kill tumor cells through lysis. This effect is enhanced in the presence of IL-2. Experimentally, the YAC-1 tumor cell line is routinely used as a target cell for murine NK cells, and the K562 cell line is used as the target for human PBLs. The human prostate cell line DU145 was also included in the test. The data set out in Table 5 show an activation of both murine and human NK cells by PT and IL-2. For these experiments, the drugs, PT and IL-2, were included in the cell suspension and incubated for 48 hours. After this period, the splenocyte suspension was mixed with the YAC-1 target cells that had been loaded with ^51Cr for four hours. The human PBLs were added to a K562 or DU-145 cell suspension that had been similarly loaded. After a 30-minute incubation, the radioactivity in the supernatant fluid was counted as a measure of lysis of the target cells, which reflects NK activity. […]

The subject of another data set is non-adherent human PBLs. Put plainly: Mitogen assay (^3H-thymidine uptake), human PBLs. It counts as cell-based. As to conditions: IL-2 50 units/ml alone (PT = 0).
From the text: as §1, §2, §3, §4

In the case of `OCCS` [βME, β-mercaptoethanol, reference compound], the “stimulation of the mitogen reaction” value in the data set on Balb C splenocytes [1] (0.1 μg/ml (PT 20 nM; βME 40 nM)) is given as “no stimulation”.
In data set [2], “Pyrularia thionin (from UniProt P07504) (peptide)” gave a Kd of 65 nM.
For “granulocyte-macrophage colony-stimulating-factor [GM-CSF]”, the “Cpm, standard mitogen assay” value in the data set on Balb C splenocytes [3] (GM-CSF (20 ng/ml) alone, no PT) was 1,170 Cpm; in the data set on Balb C splenocytes [1] (GM-CSF (5 ng/ml) alone, no PT) it was 1,024 Cpm.
Take “keyhole limpet hemocyanin [KLH, reference compound]”: the IL-1 in the data set with IL-1 (Experiment 1, KLH 10 μg/ml, control 3.9) stood at 12.4 ± 0 pg/mL; in the data set on IL-1 (Experiment 4, KLH (20 mg/ml), control 9), 9 ± 0.4 pg/mL. The “CPM of tritiated thymidine incorporated” value in the data set with Balb C splenocytes [3] (KLH 20 μg/ml alone (PT = 0)) is recorded as 3,301 ± 255 CPM. The IL-12 in the data set with IL-12 stood at 21 ± 1.6 pg/mL.

B1: interleukin-2 (protein, UniProt P04351 21-169, looked up)
Interleukin-2: APTSSSTSSSTAEAQQQQQQQQQQQQHLEQLLMDLQELLSRMENYRNLKLPRMLTFKFYLPKQATELKDLQCLEDELGPLRHVLDLTQSKSFQLEDAENFISNIRVTVVKLKGSDNTFECQFDDESATVVDFLRRWIAFCQSIISTSPQ
notes: immunostimulatory cytokine; murine IL-2 in the mouse experiments, purchased from Sigma
Consider B1, for which the entries for the “CPM of tritiated thymidine incorporated” value in the data set with Balb C splenocytes [3] (IL-2 50 units/ml alone (PT = 0)) and in the data set with non-adherent human PBLs were 2,379 ± 87 CPM and 1,900 ± 64 CPM, respectively. Besides, the “Average Tumor Size” value in data set [4] (20-31 days) was 364 mm^2. The “Number of Deaths” value in data set [4] (total mice 12 (IL-2), 15 (PT), 24 (PT + IL-2)) came out at 1. In data set [4] (total mice 12 (IL-2), 15 (PT), 24 (PT + IL-2), 20-31 days), the “Mice w/o Tumors” value came to 0. The “% Cytotoxicity” value in the data set on YAC-1 target cells came out at 16.3 ± 1.1%.

As usually defined, the Kd is the equilibrium constant for the complex coming apart. A higher Kd goes with weaker binding.

The values are drawn from patent publication US7572436B1, “Thionin as an antineoplastic and immunostimulant” (priority 2000, dated 2009).
